Here are results for one substance from publication PMC7545998, “A snake toxin as a theranostic agent for the type 2 vasopressin receptor” (Theranostics, 2020).

The subject of this assay is rat model of hyponatremia. The experiment in a line: Rat model of dDAVP-induced hyponatremia. The class given is in vivo. As for the experimental part: Hyponatremia was induced in rats by continuous infusion of 10 ng/h of dDAVP and water gavage (Figure 2A). At day 0 (D0), the basal plasma sodium concentration was 145 ± 6 mM. […] In controls, plasma sodium decreased to 134 ± 1 mM and 125 ± 3 mM at D3 and D4, respectively. […] The concentration of 10 µg/kg increased plasma sodium by 12 mmol/l/24 h. This is considered as the highest acceptable correction rate in humans in order to avoid risk of osmotic demyelination. Rat weights were monitored during the experiment, each rat being its own reference.
Specific pathogen-free adult male Sprague-Dawley rats (body weight between 445 and 525 grams) were from Janvier laboratories (Le Genest St. Isle, 53941, Saint Berthevin Cedex, France) and acclimatized to the animal house conditions for 1 week. […] A stock […] solution of desmopressin (dDAVP) was prepared by dissolving 5 mg of drug in physiological saline. dDAVP was administered using subcutaneous ALZET osmotic mini-pumps (model 2002, DURECT Corporation, Cupertino, CA95014, USA) previously filled with a solution of dDAVP (pumping rate of 0.47±0.02 µL/h and mean fill volume of 233.6±4.7 µL). The dose of dDAVP (10 ng/h) was determined in preliminary experiments. Buprenorphine (Centravet, 03120 Lapalisse, France) was administered once a day at a dose of 0.02 mg/kg, s.c. from day 0 to day 3 in order to suppress post-operative pain. Water gavage (30 mL/kg) was performed 2 times per day (at 9 am and 4 pm) in the first 3 days following ALZET pump implantation, and at 9 am at day 4. Body weight was recorded every day in order to adjust for the volume of water to be administered. Rats had free access to standard rat chow, as well as water in their cages. […] On days 0, 2, 3 and 4, at 9 am, 400 µL of blood was collected from isoflurane- anesthetized rats from the tail vein with lithium heparinate (Sanofi-Aventis, Gentilly, France). Samples were centrifuged (4 °C, 2000 g, 5 min). Sodium was quantified by the Central Laboratory of the ENVT, Toulouse, France, on a VITROS 250/350/950/ 5, 1 FS, 4600 and integrated system VITROS 5600 (Ortho-Clinical Diagnostics, Buckinghamshire, United Kingdom). Multiple factor ANOVA followed by Tukey's test were used to test for significance. A P value < 0.05 was considered significant.

In the case of mambaquaretin [MQ1], the plasma sodium runs as follows: (10 µg/kg ([…]) s.c. on days 2-4, D3) 145 ± 3 mM; (10 µg/kg ([…]) s.c. on days 2-4, D4) 148 ± 2 mM; (100 µg/kg (16 nmol/kg) s.c. on days 2-4, D3) 146 ± 2 mM; (100 µg/kg (16 nmol/kg) s.c. on days 2-4, D4) 154 ± 2 mM.
